# In ChEMBL document CHEMBL1201862, “PubChem BioAssay data set” (2004):
# Active and inactive are the calls of the source.
# Columns and labels:
# [1] = HIV-1 Env-mediated cell fusion inhibitors, dose response, CCR5-tropic Env (AID 2279); format: functional
# [2] = target: Type-1 angiotensin II receptor (Homo sapiens, UniProt P30556); experiment: AT1 receptor antagonists, dose response, selectivity assay for APJ receptor antagonist project, cell-based, uHTS hits (AID 463214); format: functional;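 note: antagonist potency against angiotensin II stimulated AT1 response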
# Sequence of Type-1 angiotensin II receptor (P30556 whole entry): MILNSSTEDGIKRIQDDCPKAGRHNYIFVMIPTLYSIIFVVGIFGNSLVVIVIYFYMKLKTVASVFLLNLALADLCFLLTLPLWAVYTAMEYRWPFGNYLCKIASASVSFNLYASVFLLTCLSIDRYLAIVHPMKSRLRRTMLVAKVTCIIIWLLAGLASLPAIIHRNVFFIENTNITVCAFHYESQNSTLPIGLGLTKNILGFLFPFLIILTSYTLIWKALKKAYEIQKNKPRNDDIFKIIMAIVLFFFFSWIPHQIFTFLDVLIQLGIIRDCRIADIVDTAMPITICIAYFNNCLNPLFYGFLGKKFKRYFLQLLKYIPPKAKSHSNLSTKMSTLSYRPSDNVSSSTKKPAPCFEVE
# Beta-galactosidase = Beta-galactosidase (Escherichia coli, UniProt Q8VNN2); experiment: PubChem AID 485352; format: functional
# [3] = A549 cell cytotoxicity, dose response, cytotoxicity control, plate reader, cherry-pick, antagonist series (AID 743412); format: functional, cell-based
# [4] = LGR2 antagonists, dose response, cell-based, HEK293, CRE-luciferase reporter, cherry pick, set 2 (AID 743343); format: functional;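 note: transfected cells were stimulated with diluted bursicon conditioned medium after compound addition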
# [5] = MC4R antagonists, dose response, counter-screen for LGR2 antagonist project, cell-based, plate reader, cherry pick (AID 743444); format: functional;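 note: transfected HEK 293 cells stimulated with alpha-MSH peptide; potency of inhibitors of the alpha-MSH evoked signal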
# Paired box protein Pax-8 = Paired box protein Pax-8 (Homo sapiens, UniProt Q06710); experiment: inhibitors of PAX8-driven TPO luciferase reporter, dose response, RMG-I cells, cherry-pick (AID 687027); format: functional, cell-based;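 note: luciferase reporter driven by Pax8 target thyroperoxidase promoter measured by SteadyGlo luminescence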
# Sequence of Paired box protein Pax-8 (Q06710 whole entry): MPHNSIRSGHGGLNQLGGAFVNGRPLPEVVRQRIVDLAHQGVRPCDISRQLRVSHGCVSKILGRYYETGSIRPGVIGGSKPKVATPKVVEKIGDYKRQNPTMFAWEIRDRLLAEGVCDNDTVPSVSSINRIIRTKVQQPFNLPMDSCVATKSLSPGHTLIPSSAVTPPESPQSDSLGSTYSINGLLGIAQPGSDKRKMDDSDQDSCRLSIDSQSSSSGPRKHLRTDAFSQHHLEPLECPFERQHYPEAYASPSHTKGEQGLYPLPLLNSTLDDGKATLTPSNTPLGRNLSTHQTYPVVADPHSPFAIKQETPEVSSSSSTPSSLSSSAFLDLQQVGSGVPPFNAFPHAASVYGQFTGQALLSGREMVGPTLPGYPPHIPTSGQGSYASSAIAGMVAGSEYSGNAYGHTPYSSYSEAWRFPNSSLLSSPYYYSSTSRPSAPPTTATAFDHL
# [6] = HEK293 cell cytotoxicity, dose response, cytotoxicity control, plate reader, cherry-picked samples (AID 743446); format: functional, cell-based
# [7] = cytotoxicity in HEK-293T cells, dose response, cytotoxicity control for TCR NF-kB inhibitor project, luminescence, T-cell screen hits (AID 489026); format: functional, cell-based;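 note: cells exposed to compound about 14 hours before the viability readout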
# [8] = target: Luciferin 4-monooxygenase (Photuris pensylvanica, UniProt Q27757); experiment: firefly luciferase enzyme inhibitors, dose response, counter-screen for HSF-1 reporter inhibitor project, biochemical, Cell Titer Glo, luminescence, cherry-picks (AID 588847)
# Sequence of Luciferin 4-monooxygenase (Q27757 whole entry): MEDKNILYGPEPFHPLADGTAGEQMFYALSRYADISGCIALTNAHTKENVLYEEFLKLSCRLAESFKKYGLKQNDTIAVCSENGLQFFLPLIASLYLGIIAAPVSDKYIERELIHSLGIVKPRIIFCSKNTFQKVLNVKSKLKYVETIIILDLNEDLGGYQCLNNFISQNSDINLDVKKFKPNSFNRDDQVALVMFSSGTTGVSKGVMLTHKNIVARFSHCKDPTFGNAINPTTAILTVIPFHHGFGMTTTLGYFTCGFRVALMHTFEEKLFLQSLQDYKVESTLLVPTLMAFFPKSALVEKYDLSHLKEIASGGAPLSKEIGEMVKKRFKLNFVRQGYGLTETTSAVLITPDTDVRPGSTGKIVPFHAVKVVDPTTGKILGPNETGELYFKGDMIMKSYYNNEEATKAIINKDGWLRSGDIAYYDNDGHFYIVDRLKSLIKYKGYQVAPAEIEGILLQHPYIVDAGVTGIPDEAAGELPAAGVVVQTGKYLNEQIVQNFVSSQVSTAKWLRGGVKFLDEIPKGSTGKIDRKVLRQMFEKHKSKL
# [9] = HepG2 cell cytotoxicity, dose response, cytotoxicity control, plate reader, cherry-pick, antagonist series (AID 743416); format: functional, cell-based
# [10] = non-specific cell cytotoxicity, dose response, cytotoxicity control for PAX8 inhibitor project, plate reader, dry powder samples (AID 743021); format: functional, cell-based
# Exodeoxyribonuclease V = Exodeoxyribonuclease V (Escherichia coli (strain K12), UniProt P04993+P07648+P08394); experiment: E. coli RecBCD inhibitors, dose response, counter-screen for AddAB inhibitor project, absorbance, V66 E. coli, mutant T4 phage (AID 492957); format: functional, cell-based, Escherichia coli str. K-12 substr. MG1655
# Sequence of Exodeoxyribonuclease V (P04993 whole entry): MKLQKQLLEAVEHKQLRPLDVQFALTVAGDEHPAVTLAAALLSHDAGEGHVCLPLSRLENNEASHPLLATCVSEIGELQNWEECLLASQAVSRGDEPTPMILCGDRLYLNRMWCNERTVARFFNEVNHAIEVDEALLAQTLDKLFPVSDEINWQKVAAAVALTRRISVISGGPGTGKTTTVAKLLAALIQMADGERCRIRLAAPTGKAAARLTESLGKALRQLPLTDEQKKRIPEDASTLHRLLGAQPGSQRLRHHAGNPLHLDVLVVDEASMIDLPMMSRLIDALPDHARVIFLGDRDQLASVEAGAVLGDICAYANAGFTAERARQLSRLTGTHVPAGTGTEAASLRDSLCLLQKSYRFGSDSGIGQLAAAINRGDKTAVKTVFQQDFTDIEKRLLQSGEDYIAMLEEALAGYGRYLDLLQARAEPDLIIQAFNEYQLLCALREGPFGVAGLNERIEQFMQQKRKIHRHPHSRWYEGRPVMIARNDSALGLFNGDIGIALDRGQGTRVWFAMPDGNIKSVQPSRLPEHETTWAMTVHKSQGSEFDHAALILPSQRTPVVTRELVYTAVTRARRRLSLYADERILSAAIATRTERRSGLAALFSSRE
# Sequence of Exodeoxyribonuclease V (P07648 whole entry): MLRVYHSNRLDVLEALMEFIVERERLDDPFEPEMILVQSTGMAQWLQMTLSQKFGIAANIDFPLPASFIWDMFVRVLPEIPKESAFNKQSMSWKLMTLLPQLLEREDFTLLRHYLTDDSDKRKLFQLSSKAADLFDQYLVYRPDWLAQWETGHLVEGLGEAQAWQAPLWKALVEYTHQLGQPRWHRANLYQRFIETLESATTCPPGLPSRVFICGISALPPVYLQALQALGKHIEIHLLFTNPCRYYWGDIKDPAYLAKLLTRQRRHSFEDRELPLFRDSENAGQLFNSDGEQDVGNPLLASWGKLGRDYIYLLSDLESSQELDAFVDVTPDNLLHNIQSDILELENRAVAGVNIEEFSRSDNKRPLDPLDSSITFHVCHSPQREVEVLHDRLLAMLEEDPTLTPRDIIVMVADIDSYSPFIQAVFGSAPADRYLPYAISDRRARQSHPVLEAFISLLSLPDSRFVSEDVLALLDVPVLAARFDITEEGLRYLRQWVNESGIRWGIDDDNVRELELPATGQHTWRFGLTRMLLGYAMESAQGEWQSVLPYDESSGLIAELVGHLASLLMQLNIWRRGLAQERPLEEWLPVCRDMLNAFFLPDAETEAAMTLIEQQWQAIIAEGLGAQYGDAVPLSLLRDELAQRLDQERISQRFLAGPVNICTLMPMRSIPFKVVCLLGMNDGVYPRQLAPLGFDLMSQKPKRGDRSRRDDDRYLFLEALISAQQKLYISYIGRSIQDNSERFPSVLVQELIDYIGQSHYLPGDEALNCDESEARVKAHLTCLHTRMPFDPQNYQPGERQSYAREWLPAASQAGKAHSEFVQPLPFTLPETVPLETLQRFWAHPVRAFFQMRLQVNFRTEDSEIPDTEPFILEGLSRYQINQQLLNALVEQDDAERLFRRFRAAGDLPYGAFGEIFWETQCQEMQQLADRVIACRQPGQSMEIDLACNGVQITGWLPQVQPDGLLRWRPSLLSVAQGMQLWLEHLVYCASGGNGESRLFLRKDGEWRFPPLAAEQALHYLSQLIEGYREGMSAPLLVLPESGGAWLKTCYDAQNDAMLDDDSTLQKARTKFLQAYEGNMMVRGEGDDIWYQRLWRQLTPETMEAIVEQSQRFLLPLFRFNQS
# Sequence of Exodeoxyribonuclease V (P08394 whole entry): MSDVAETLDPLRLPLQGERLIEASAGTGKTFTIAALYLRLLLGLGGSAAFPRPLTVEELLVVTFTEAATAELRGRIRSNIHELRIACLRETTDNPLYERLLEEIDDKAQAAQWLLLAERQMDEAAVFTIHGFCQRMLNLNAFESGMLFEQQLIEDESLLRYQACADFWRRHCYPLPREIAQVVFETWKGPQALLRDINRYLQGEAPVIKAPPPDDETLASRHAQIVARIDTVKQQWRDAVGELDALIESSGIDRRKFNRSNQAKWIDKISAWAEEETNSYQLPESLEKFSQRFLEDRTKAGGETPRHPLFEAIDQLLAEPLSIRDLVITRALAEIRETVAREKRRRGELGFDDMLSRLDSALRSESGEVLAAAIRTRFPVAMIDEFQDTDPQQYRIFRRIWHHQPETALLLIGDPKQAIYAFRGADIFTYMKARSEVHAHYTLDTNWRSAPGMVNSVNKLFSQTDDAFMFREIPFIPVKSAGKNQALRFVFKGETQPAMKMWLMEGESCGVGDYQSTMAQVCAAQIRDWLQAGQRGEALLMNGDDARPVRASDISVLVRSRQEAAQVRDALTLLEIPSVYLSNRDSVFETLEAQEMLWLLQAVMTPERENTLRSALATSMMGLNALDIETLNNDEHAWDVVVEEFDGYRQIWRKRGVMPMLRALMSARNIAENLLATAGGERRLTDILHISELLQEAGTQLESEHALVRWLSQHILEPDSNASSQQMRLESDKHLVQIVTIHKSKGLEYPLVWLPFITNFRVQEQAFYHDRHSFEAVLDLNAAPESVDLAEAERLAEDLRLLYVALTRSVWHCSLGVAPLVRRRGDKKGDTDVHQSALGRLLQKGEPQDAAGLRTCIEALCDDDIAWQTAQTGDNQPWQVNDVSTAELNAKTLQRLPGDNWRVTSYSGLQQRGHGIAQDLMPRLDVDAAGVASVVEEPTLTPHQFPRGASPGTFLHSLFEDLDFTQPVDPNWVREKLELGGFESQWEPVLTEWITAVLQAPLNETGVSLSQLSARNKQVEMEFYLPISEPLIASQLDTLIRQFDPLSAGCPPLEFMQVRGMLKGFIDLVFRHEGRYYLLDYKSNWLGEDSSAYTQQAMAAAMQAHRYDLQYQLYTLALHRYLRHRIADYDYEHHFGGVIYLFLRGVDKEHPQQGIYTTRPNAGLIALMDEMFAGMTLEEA
# [11] = target: T1, Heat shock factor protein 1 (Mus musculus, UniProt P38532); experiment: inhibition of MG132-induced HSE-luciferase signal, confirmation, cell-based, NIH3T3, luminescence, dose retest (AID 2382); format: functional;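 note: NIH3T3 fibroblasts with HSF1-driven luciferase reporter stressed by proteasome inhibitor MG132; luminescence from HSF1-driven luciferase expression after 8 hours of MG132 stress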
# T1 sequence (P38532 whole entry): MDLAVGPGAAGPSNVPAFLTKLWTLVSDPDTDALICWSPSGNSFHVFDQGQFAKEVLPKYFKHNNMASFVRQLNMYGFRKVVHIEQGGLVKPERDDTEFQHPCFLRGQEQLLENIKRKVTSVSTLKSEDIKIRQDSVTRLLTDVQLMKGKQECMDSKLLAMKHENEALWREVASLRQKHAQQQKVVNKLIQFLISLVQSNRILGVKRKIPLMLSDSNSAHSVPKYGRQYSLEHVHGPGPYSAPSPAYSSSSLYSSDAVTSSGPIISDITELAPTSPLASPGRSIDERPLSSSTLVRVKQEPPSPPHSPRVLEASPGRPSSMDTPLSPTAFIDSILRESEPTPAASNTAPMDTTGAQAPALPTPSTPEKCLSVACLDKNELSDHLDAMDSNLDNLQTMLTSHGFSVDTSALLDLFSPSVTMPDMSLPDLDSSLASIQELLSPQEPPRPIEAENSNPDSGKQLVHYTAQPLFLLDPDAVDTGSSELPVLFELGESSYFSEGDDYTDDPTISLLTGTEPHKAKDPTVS
# [12] = Counterscreen for AddAB inhibitors: absorbance-based bacterial cell-based high throughput dose response assay for inhibitors of bacterial viability. [Related pubchem assays (depositor defined):AID435030, AID449728, AID449731, AID488942, AID488955, AID488956]; format: functional
# Vero = experiment: cells; format: functional; conditions: Chlorocebus sabaeus
# [13] = cytotoxicity toward NIH3T3 fibroblasts, dose response, counter-screen, cell-based, ATP luminescence, mouse fibroblasts (AID 2010); format: functional;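 note: cells exposed to compound for about 90 hours before reading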
# A-375 = experiment: A375 melanoma cell viability reduction, dose response, counter-screen for MITF modulator project, cherry-pick samples, set 2 (AID 540335); format: functional, cell-based; conditions: Homo sapiens
# [14] = target: Microphthalmia-associated transcription factor (Homo sapiens, UniProt O75030); experiment: TRPM1 promoter luciferase signal decrease, dose response, MITF inhibitor project, cell-based, SK-MEL-5, cherry-picked, set 3 (AID 493073); format: functional
# Sequence of Microphthalmia-associated transcription factor (O75030 whole entry): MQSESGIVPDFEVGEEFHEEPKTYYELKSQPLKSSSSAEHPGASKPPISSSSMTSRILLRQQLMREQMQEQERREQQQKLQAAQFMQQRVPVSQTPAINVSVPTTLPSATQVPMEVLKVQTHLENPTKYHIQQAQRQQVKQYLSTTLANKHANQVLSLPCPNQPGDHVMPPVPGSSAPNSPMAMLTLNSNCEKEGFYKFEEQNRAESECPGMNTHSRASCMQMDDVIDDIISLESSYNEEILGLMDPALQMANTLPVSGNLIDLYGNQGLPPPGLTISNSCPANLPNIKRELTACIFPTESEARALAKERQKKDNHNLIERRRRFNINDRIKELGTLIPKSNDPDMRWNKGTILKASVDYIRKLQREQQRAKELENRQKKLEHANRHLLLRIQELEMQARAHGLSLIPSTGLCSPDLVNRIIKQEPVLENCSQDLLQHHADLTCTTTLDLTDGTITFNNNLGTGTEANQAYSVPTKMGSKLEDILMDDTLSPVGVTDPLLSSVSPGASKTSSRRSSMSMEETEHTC
# INS1 = experiment: beta cell apoptosis inhibitors, cytokine rescue, dose response, luminescence, retest (AID 449756); format: functional, cell-based; conditions: Rattus norvegicus;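 note: cell death triggered by IL-1 beta plus TNF-alpha plus IFN-gamma mixture; protective hits raise ATP signal compared with cytokine alone wells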
# [15] = target: T2, Apoptotic protease-activating factor 1 (Homo sapiens, UniProt O14727); format: functional
# T2 sequence (O14727 whole entry): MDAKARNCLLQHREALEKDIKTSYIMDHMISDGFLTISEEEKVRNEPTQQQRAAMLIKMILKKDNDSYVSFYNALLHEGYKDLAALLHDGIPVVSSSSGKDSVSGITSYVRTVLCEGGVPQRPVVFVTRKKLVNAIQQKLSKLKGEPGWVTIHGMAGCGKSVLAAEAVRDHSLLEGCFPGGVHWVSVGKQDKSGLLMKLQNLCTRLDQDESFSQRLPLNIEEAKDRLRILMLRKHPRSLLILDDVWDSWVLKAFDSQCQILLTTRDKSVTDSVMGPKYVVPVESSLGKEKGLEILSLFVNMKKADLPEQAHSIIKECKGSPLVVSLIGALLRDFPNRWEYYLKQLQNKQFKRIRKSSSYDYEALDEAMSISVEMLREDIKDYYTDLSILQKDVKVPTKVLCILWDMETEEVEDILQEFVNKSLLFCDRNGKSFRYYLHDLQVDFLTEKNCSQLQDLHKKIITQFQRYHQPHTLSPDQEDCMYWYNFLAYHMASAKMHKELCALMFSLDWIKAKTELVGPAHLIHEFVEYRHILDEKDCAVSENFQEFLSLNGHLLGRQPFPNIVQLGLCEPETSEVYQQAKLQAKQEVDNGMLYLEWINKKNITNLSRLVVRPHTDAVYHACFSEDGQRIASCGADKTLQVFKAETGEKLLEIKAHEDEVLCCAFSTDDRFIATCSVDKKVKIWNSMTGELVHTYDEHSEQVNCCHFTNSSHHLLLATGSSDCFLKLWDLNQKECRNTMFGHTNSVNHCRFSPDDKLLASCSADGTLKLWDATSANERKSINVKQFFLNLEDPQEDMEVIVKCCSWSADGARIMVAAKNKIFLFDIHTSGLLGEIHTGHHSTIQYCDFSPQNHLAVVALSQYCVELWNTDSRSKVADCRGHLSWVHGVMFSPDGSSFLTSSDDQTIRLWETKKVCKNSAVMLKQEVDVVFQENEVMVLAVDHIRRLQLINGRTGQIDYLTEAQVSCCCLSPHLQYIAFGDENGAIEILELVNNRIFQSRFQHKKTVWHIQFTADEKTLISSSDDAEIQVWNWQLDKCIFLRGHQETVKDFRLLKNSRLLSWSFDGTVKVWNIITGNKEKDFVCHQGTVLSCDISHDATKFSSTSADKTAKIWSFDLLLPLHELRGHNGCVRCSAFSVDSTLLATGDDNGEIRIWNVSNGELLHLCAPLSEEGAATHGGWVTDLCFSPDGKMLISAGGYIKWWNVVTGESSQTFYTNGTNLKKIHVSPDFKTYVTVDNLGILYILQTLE
# [16] = target: T3, Histone-lysine N-methyltransferase NSD2 (Homo sapiens, UniProt O96028); format: biochemical
# T3 sequence (O96028 whole entry): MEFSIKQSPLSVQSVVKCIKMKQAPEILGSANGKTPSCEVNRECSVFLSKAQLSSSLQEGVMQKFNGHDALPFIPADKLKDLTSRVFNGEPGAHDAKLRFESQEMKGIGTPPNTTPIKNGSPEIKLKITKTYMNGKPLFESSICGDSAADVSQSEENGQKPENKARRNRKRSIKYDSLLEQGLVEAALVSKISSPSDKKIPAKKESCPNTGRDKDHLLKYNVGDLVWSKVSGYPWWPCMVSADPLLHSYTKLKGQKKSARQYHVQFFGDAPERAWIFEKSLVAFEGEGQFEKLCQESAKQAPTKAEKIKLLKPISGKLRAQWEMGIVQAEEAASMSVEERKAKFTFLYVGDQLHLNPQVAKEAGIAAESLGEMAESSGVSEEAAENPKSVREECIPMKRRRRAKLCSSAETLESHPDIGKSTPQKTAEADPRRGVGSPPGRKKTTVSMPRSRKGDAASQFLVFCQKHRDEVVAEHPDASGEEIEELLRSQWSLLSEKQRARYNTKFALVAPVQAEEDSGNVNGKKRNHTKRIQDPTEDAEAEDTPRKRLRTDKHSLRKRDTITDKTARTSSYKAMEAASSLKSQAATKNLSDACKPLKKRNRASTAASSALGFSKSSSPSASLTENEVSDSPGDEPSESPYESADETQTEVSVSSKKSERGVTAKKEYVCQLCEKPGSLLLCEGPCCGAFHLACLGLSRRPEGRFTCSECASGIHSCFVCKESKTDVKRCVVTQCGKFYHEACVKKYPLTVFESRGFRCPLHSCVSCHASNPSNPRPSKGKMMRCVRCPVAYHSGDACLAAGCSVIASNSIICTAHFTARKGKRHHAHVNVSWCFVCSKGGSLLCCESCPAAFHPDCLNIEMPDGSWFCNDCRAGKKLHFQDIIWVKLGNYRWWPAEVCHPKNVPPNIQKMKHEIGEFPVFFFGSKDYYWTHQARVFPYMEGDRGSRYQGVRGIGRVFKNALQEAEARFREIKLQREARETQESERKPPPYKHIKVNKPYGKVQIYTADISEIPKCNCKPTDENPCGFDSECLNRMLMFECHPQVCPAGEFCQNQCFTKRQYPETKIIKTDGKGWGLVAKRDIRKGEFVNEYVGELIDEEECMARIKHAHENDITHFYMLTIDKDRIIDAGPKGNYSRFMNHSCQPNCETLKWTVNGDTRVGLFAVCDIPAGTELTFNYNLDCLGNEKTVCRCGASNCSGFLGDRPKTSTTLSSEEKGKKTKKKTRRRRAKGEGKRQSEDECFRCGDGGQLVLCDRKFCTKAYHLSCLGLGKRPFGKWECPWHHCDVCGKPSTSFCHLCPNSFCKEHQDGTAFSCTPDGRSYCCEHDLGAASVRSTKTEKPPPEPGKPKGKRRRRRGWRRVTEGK
# [17] = Luminescence-based dose response cell-based high throughput screening assay for cytotoxic compounds using the IEC-6 intestinal epithelial cell line. [Related pubchem assays: 1858 (Summary AID.), 1825 (Counterscreen.), 1907 (Confirmation screen.)]; format: functional
# [18] = inhibitors of intracellular T. cruzi replication, confirmation, NIH3T3 host cells, beta-gal luminescence (AID 2044); format: functional, cell-based;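 note: intracellular parasites grown in NIH/3T3 mouse fibroblasts as host cells; luminescent beta-galactosidase reporter signal from transgenic T. cruzi replicating inside host cells; inhibitors lower the luminescence signal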
# [19] = target: T4, Calpain-2 catalytic subunit (Sus scrofa, UniProt P43367); experiment: pig calpain II inhibitor potency, dose response, biochemical, fluorogenic peptide substrate (AID 1420); format: functional
# T4 sequence (P43367 whole entry): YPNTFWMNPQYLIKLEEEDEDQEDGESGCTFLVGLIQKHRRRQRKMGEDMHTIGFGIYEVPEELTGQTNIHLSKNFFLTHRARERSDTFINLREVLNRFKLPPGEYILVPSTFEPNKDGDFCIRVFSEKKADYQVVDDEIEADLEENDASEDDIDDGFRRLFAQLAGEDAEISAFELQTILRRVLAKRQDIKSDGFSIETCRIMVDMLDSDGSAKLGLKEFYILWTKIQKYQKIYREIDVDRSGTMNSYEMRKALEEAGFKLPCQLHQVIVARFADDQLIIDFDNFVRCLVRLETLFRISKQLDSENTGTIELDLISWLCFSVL
smiles,measurement,setting,value
O=C(O)c1ccccc1N=Nc1c(O)[nH]c2ccc([N+](=O)[O-])cc12,IC50,[1],10.1 µM (active)
same,IC50,[2],> 40 µM (not active)
same,EC50,Beta-galactosidase,> 40 µM (inactive)
C(=N\Nc1nc2ccccc2s1)/c1ccccn1,AC50,[3],2.02 µM (active)
same,AC50,[4],148 nM (active)
same,AC50,[5],229 nM (active)
same,AC50,Paired box protein Pax-8,3.32 µM (active)
same,AC50,[6],3.72 µM (active)
same,IC50,[7],> 80 µM (inactive)
same,AC50,[8],836 nM (active)
same,AC50,[9],2.06 µM (active)
same,AC50,[10],9.34 µM (active)
same,IC50,Exodeoxyribonuclease V,> 119 µM (inactive)
same,EC50,[11],< 160 nM (active)
same,IC50,[12],> 119 µM (inactive)
same,CC50,Vero,2.61 µM (active)
CCN(CC)CCCNC1=C(Cl)C(=O)c2ccccc2C1=O,EC50,[13],2.26 µM (active)
same,AC50,A-375,14.8 µM (active)
same,AC50,[14],1.78 µM (active)
same,AC50,INS1,2.46 µM (active)
same,IC50,[15],11.7 µM (active)
same,AC50,[16],4.69 µM (active)
same,IC50,[17],1.8 µM (active)
same,EC50,[18],987 nM (active)
same,IC50,[19],9.5 µM (not active)
